# Data: PubChem BioAssay AID2305 (GlaxoSmithKline (GSK), 2010)
# Where “and” joins values, the source holds several entries; their conditions need not be identical. Equal values may be shown once.
# Tested on: P. falciparum 3D7 growth, pLDH absorbance
# Experiment: P. falciparum 3D7 growth inhibition, dose response, strain 3D7 (AID 2305)
row,Structure (SMILES),IC50
1,CN(Cc1cccc(C#N)c1)C1CCN(c2cc(NC(=O)c3cccc(F)c3)ccn2)CC1,930 nM
2,CN(C(=O)/C=C/c1c(Cl)cccc1Cl)C1CCN(CCCCCNC(=O)/C=C/c2ccc(Cl)c(Cl)c2)CC1,360 nM
3,Nc1ncc(-c2ccsc2)c2ccc(-c3cnc[nH]3)cc12,570 nM
4,COc1ccc(S(=O)(=O)Nc2cc(C)cc(Br)c2OC)cc1N1CCN(C(=O)C(Cl)(Cl)Cl)CC1,870 nM
5,Fc1ccc2c(NN=Cc3ccccc3F)ccnc2c1,560 nM
6,N#CCCN1CCN(Cc2cccc(-c3ccc(-c4nc5ccc(F)cc5[nH]4)cc3)c2)CC1,600 nM
7,COc1ccc2nccc([C@@H](O)CN3CCC(NCc4cc5ccc(Cl)cc5[nH]4)CC3)c2c1,120 nM
8,COc1ccccc1N1CCN(CCCCNC(=O)c2ccc(NC(=O)c3ccc4ccccc4c3)cc2)CC1,800 nM
9,O=C(O)c1ccc2nc(-c3ccc(-c4ccccc4)cc3)n(C3CCN(Cc4ccc(-c5ncc[nH]5)cc4)CC3)c2c1,1730 nM
10,NOCCCCOc1ccc(Cl)cc1,780 nM
11,CN1CCC(NCc2ccc(-c3ccc(S(=O)(=O)NC4CCC4)s3)cc2)CC1,850 nM
12,Fc1ccc(Nc2ccnc3cc(-c4ccc(CN5CCOCC5)o4)ccc23)c(Cl)c1,760 nM
13,O=C1CSc2ccc(CNC3CCN(CCc4c(Cl)cnc5ccc(Cl)cc45)CC3)nc2N1,230 nM
14,Cc1cc(NN=Cc2cccc(Cl)c2)c2cc(F)ccc2n1,760 nM
15,Nc1cccc(CNCc2ccc(-c3cccc(-c4nc5ccc(F)cc5[nH]4)c3)cc2)c1,210 nM
16,O=C(Nc1ccc(Cl)c(Cl)c1)N1CCC(CN2CCC(c3c[nH]c4ccccc34)CC2)CC1,290 nM
17,CCn1ccc2c(N3CCCC3=O)cc(C(=O)N[C@@H](Cc3ccccc3)[C@H](O)CNC3CCCCC3)cc21,120 nM
18,CC[C@H]1CN2CC[C@H]1C[C@H]2[C@H](O)c1cc(-c2cccc(Cl)c2)nc2ccc(OC)cc12,170 nM
19,CCCC(=O)NC(c1cccs1)c1cc(Cl)c2cccnc2c1O (stereo not drawn),850 nM
20,COc1ccc(-c2c(C(F)(F)F)nn(C)c2NC(=O)Nc2ccc(F)cc2F)cc1,800 nM
21,Cc1cc2ncn(-c3nccc(NCc4ccc(F)c(C)c4)n3)c2cc1C,990 nM
22,COCc1cc(C)nc2sc(C(=O)Nc3cc(C(C)(C)C)ccc3O)c(N)c12,710 nM
23,COc1ccc2ncc(F)c(CCN3CCC[C@H](CNCc4ccc5c(n4)NC(=O)CS5)C3)c2n1,970 nM
24,Cc1cccc2[nH]c(-c3ccc(-c4ccc(NC(=O)Nc5ccsc5)cc4)cc3)nc12,170 nM
25,CC(C)Cn1c(Sc2ccc(C#N)c([N+](=O)[O-])c2)nnc1-c1ccc(N(C)C)cc1,220 nM

row,Structure (SMILES),IC50
1,N#Cc1ccc(CNCCCCCCNCc2ccc(C#N)c3ccccc23)c2ccccc12,610 nM
2,CC1CCCC(NC(=O)CCOc2ccccc2)C1 (stereo not drawn),880 nM
3,COCCCN=C(N)c1ccc(NC(=O)c2ccc(C(=O)Nc3ccc(C(N)=NCCCOC)cc3)cc2)cc1,50 nM
4,CNS(=O)(=O)CCNCc1ccc(-c2ccc3ncnc(Nc4ccc(OCc5ccccc5)cc4)c3c2)o1,730 nM
5,N#Cc1cc(C(=O)c2cc(Cl)ccc2O)cn(-c2cc(Cl)cc(Cl)c2)c1=O,850 nM
6,COc1ccc(CCn2c(=N)c(C(=O)NCc3ccccc3)cc3c(=O)n4cccc(C)c4nc32)cc1,340 nM
7,Fc1cccc(Cl)c1-c1nc(NCCC(c2ccccc2)c2ccccc2)no1,550 nM
8,CC1(CCCCN2CCC(Cc3ccccc3)CC2)C(=O)Nc2ccccc21 (stereo not drawn),860 nM
9,COc1cc2c(cc1OC)CN(CCc1ccc(NC(=O)c3cc4cc(OC(F)(F)F)ccc4[nH]3)cc1)CC2,530 nM
10,Cc1[nH]c(CNCCCNc2cc(=O)c3ccccc3[nH]2)c(Br)c1Br,1040 nM
11,O=C(Nc1cccc(-c2ccc(CN3CCCC3)cc2)c1)c1cccc(F)c1,780 nM
12,COc1ccc2c(NN=CC=Cc3ccccc3)ccnc2c1,770 nM
13,CC(CCCC(=O)Nc1ccc(CC(C)NCCc2cccc(Cl)c2)cc1)NCCc1cccc(Cl)c1 (stereo not drawn),620 nM
14,O=C(CC(=O)Nc1cc(Cl)cc(Cl)c1)Nc1cc(Cl)cc(Cl)c1,160 nM
15,COc1ccc(S(=O)(=O)N2CCCc3ccc(Br)cc32)cc1N1CCN(C(=O)C(Cl)(Cl)Cl)CC1,810 nM
16,O=C(/C=C/c1ccc(Cl)cc1)NC1CCC(CN2CCC(c3c[nH]c4ccccc34)CC2)CC1 (stereo not drawn),800 nM and 730 nM
17,Oc1ccc(C=NNC(=S)Nc2cccc3ccccc23)c(O)c1,1040 nM
18,CC[C@H]1CN2CC[C@H]1C[C@@H]2[C@@H](O)c1ccnc2ccccc12,280 nM
19,O=C(Nc1cccc(C(F)(F)F)c1)c1cccc(S(=O)(=O)NCC2CCCN2CC2CCCCC2)c1 (stereo not drawn),1110 nM
20,Cc1[nH]c(C)c(-c2ccc(Oc3cccc(Cl)c3)cc2)c(=O)c1Cl,20 nM
21,Cc1nc(-c2cccc3c(NC(=O)N4CCc5cc6nccc(N7CCN(C)CC7)c6cc54)cccc23)no1,760 nM
22,COc1ccccc1C(=O)Nc1ccc(Nc2nc(C)cc(N3CCOCC3)n2)cc1,530 nM
23,COc1ccc2cc(-c3nc(-c4c(Cl)cccc4Cl)[nH]c3-c3ccnc(NCCCN4CCCCC4C)c3)ccc2c1 (stereo not drawn),950 nM
24,C[C@H](Cc1ccc(C[C@@H](C)NCC(O)c2cc(Cl)c(N)c(Cl)c2)cc1)NCC(O)c1cc(Cl)c(N)c(Cl)c1 (stereo partly drawn),890 nM
25,COc1ccc2nccc([C@@H](O)CN3CCC(NCc4ccc5c(c4)OCCO5)CC3)c2c1,290 nM

row,Structure (SMILES),IC50
1,O[C@@H](c1ccccc1)[C@@H]1CN(CCc2ccccc2)CC[C@@]1(O)c1ccccc1,1040 nM
2,CCCCCN1CCCC1CNS(=O)(=O)c1ccc(C(=O)Nc2ccc(C(F)(F)F)cc2)cc1 (stereo not drawn),840 nM
3,CCNc1cc(C)nc(Nc2ccc(NC(=O)c3ccc(OC)c(OC)c3)cc2)n1,1070 nM
4,COc1ccc2nccc([C@@H](O)CN3CCC(NCc4cc5cccnc5[nH]4)CC3)c2n1,960 nM
5,O=C1Nc2cccc3c2C1(CCCCCN1CCC(c2c[nH]c4ccncc24)CC1)CCC3 (stereo not drawn),990 nM
6,Cc1ccc2nc3c(cc(C(=O)NCCc4ccccc4)c(=N)n3CCCOC(C)C)c(=O)n2c1,890 nM
7,N#Cc1ccc2c(c1)CCN(CCC1CCC(NC(=O)c3cc4cccc(Cl)c4[nH]3)CC1)CC2 (stereo not drawn),580 nM
8,CCOC(=O)c1ccc(NC(=O)N(Cc2ccc(-c3cccc(CN4CCNCC4)c3)cc2)C2CCN(Cc3ccccc3)CC2)cc1,750 nM
9,COc1ccc(Nc2nc(NN=Cc3cc(Br)c(O)cc3O)nc(Nc3ccc([N+](=O)[O-])cc3)n2)cc1,900 nM
10,O=C(Nc1ccc(N2CCN(C(=O)C=Cc3ccccc3)CC2)c(Cl)c1)c1ccc([N+](=O)[O-])o1,860 nM
11,CCOC(=O)c1sc(C(C)Nc2ccccc2)nc1-c1ccccc1 (stereo not drawn),330 nM
12,CCNS(=O)(=O)c1ccc(Oc2ccc([N+](=O)[O-])cc2)cc1,170 nM
13,O=C(/C=C/c1ccc(Cl)c(Cl)c1)NC1CCC(CN2CCC(c3nc4ccccc4n3CCCO)CC2)CC1 (stereo not drawn),580 nM
14,CN1CCC(COc2ccc(CN3CCC(NC(=O)c4cccc(Cl)c4)CC3)cc2)CC1,890 nM
15,S=C(NN=Cc1ccccn1)NC1C[C@H]2C=C[C@@H]1C2 (stereo partly drawn),720 nM
16,CC(C)Cn1c(N)cc(=O)n(C)c1=O,980 nM
17,COc1cc2nc(NCCCN3CCCCC3)nc(NCc3ccccc3)c2cc1OC,1000 nM
18,CN(C)CCCOc1ccc(CN2CC[C@H](NC(=O)c3ccc(Cl)c(Cl)c3)C2)cc1Cl,960 nM
19,Cc1nn(-c2ccccc2)nc1C(=O)NC1CCN(CCNC(=O)c2ccc(Cl)c(Cl)c2)CC1,870 nM
20,Cc1ccc(NC(=O)Nc2ccc(Cn3ncc(N4CCCNCC4)c(Cl)c3=O)cc2)cc1,920 nM
21,CS(=O)(=O)Cc1ccc(Nc2nccc(NC3CCN(c4nccc(C(F)(F)F)n4)CC3)n2)cc1,900 nM
22,Cc1noc(C)c1-c1ccc2c(Nc3ccc(Cl)cc3)c(C(N)=O)cnc2c1,830 nM
23,CCN(CC)CCN(Cc1ccc(-c2ccc(C(F)(F)F)cc2)cc1)C(=O)c1ccc(-c2ccc(NC(=O)OC)cc2C)cc1,930 nM
24,CC1CCN(CC[C@H]2CCCN2S(=O)(=O)c2cccc(NC(=O)c3ccc(-c4ccccc4)cc3)c2)CC1,1260 nM
25,COc1cccc(Nc2nc(N)c3ccccc3n2)c1,930 nM

row,Structure (SMILES),IC50
1,CC[C@H]1CN2CC[C@@H]1C[C@@H]2[C@@H](O)c1cc(-c2ccc(F)cc2)nc2ccc(OC)cc12,110 nM
2,CCC[C@@H](/C=N/N(C)C(=O)OC(C)(C)C)NC(=O)[C@H](CC(C)C)NC(=O)c1cc2cccc(OC)c2o1,1080 nM
3,COc1ccc(OCC(=O)Nc2cc(-c3nc4ccccc4[nH]3)ccc2Cl)cc1,900 nM
4,COc1ccc(-c2nc3cccnc3n2CC(=O)Nc2cc(Cl)c(Cl)cc2Cl)c(OC)c1,720 nM
5,CN1CC=C(c2c[nH]c3ccc(Sc4ccccc4)cc23)CC1,360 nM
6,OCCCCCCNc1ccnc2[nH]c3ccc(I)cc3c12,1070 nM
7,COCC(=O)N(Cc1ccccc1-c1cccc(CNCc2ccc3c(c2)OCO3)c1)C1CCN(Cc2ccccc2)CC1,840 nM
8,CCN(CC)CCN(Cc1ccc(-c2ccc(C(F)(F)F)s2)cc1)C(=O)Cn1c(CCc2cccc(F)c2F)nc(=O)c2ccccc21,990 nM
9,O=C(Nc1cccc(C(F)(F)F)c1)Nc1ccc(Cl)c(C(F)(F)F)c1,890 nM
10,CCn1c(-c2nonc2N)nc2c(-c3cccc(NC(=O)Nc4ccc(Cl)cc4)c3)ncc(OCCCN)c21,830 nM
11,COc1ccc(NC(=O)Nc2ccc(-c3ccc(-c4nc5ccccc5[nH]4)cc3)cc2)cc1,510 nM
12,CS(=O)(=O)c1ccccc1CNC(=O)c1ccc(-c2cccc(-c3nc4ccc(C(F)(F)F)cc4[nH]3)c2)cc1,870 nM
13,COc1ccccc1CCNc1nc(C)cc(N[C@@H](Cc2ccccc2)C(=O)Nc2ccccc2)n1,1020 nM
14,O=C(Nc1ccccc1-c1nc2ccccc2s1)C(Cl)(Cl)Cl,640 nM
15,COc1ccc(-c2cccc(NC(=O)c3cccc(C#N)c3)c2)cc1CN(C)CCO,820 nM
16,C=CCc1cc(SC)ccc1Oc1ccc(N)cc1,740 nM
17,CC(C)CCN1CCC(Oc2ccc(NC(=O)c3ccc(F)cc3)cc2Cl)CC1,720 nM
18,O=C(CCCCCc1ccccc1)NC1CCC(CN2CCC(c3c[nH]c4ccccc34)CC2)CC1 (stereo not drawn),1140 nM
19,O=C(Nc1ccc(Cl)cc1)c1cc(Cl)ccc1NC(=O)C1CCc2ccccc2O1 (stereo not drawn),1790 nM
20,COc1ccc(C(c2ccc(N(C)C)cc2)c2ccc(N(C)C)cc2)cc1,60 nM
21,COc1cc2nc(NCCC(C)C)n3nc(-c4ccccc4)nc3c2cc1OC,420 nM
22,CN1CCN(C(=O)CN2CCC3(CCC2=O)NC(=O)c2ccccc2O3)CC1 (stereo not drawn),210 nM
23,CC(C)OC(=O)c1cccnc1SCC(=O)Nc1ccc(C(F)(F)F)cc1Cl,400 nM
